Test results taken from ChEMBL document CHEMBL2016574, “Substituted aminopyrimidine protein kinase B (PknB) inhibitors show activity against Mycobacterium tuberculosis” (Bioorg Med Chem Lett, 2012).
Activity calls are given as the source filed them. The rule behind the calls is not given here.

What was measured:
[1] = molecular target: T1, Serine/threonine-protein kinase PknF (Mycobacterium tuberculosis) (UniProt P9WI75); assay: Inhibition of Mycobacterium tuberculosis PknF
T1 sequence (whole entry): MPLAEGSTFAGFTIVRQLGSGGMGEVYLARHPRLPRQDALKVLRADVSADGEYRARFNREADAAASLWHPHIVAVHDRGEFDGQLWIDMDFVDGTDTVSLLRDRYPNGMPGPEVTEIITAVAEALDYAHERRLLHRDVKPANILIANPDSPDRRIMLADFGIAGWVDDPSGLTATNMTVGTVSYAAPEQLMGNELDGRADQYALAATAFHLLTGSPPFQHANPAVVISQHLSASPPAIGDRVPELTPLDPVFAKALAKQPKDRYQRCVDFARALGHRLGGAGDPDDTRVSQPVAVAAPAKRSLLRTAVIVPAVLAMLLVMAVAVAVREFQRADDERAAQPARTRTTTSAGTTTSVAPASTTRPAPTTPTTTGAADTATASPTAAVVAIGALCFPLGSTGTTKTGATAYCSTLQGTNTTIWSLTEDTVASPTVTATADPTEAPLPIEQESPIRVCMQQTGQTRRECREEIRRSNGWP

[2] = molecular target: Serine/threonine-protein kinase PknG (Mycobacterium tuberculosis) (UniProt P9WI73); assay: Inhibition of Mycobacterium tuberculosis PknG
[3] = Protein binding in plasma; type: ADME, cell-free; conditions: read-out: PPB

Chain of Serine/threonine-protein kinase PknG (Mycobacterium tuberculosis) (P9WI73 whole entry): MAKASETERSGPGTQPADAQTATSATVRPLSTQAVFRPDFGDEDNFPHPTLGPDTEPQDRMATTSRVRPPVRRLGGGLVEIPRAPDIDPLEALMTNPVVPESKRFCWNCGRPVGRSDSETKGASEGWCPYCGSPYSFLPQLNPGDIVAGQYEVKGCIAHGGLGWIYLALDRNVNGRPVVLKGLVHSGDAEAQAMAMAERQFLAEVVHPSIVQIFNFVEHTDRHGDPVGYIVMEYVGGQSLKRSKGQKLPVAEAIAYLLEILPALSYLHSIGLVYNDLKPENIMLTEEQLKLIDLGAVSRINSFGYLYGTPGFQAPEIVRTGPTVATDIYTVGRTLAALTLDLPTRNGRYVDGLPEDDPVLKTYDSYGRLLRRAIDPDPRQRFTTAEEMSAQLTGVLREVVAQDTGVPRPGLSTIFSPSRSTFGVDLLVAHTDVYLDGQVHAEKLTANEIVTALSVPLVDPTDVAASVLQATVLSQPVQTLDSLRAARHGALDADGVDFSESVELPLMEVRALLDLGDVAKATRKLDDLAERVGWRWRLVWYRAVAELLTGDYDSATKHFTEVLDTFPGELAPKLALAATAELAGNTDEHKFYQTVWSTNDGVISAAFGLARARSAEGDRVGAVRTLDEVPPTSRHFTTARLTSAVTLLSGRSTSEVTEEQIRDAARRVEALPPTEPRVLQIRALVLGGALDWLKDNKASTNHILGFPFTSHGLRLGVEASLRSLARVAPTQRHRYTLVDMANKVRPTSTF

| Compound | inhibition [1] | inhibition [2] | fraction unbound [3] |
| --- | --- | --- | --- |
| CN(C)[C@@H]1CCN(c2cc(Nc3ccccn3)nc(-c3cccc(C#N)c3)n2)C1 | Active | Active |  |
| CN(C)CCNc1cc(Nc2cc(C3CC3)[nH]n2)nc(-c2cccc(C#N)c2)n1 | Active | Active |  |
| CN1CCC(CNc2cc(Nc3cc(C4CC4)[nH]n3)nc(-c3cccc(C#N)c3)n2)CC1 | Active | Active |  |
| c1ccc2c(Nc3cc(C4CC4)n[nH]3)nc(-c3ccncc3)nc2c1 |  |  | < 0.01 |
| c1ccc(CNc2nccc(Nc3cc(C4CC4)[nH]n3)n2)cc1 | Active | Active |  |
| CN1CCN(c2cc(Nc3cc(C4CC4)[nH]n3)nc(-c3ccccc3)n2)CC1 | Active | Active |  |
| Fc1ccc(-c2nc(Nc3cc(C4CC4)n[nH]3)c3ccccc3n2)cc1 |  |  | < 0.01 |
| N#Cc1cccc(-c2nccc(Nc3cc(C4CC4)[nH]n3)n2)c1 | Active | Active |  |
| c1cc(Nc2cc(C3CC3)[nH]n2)nc(NC2CCCCC2)n1 | Active | Active |  |
| c1ccc2c(Nc3cc(C4CC4)[nH]n3)nc(-c3ccncc3)nc2c1 | Active | Active |  |
| Fc1ccc(-c2nc(Nc3cc(C4CC4)[nH]n3)c3ccccc3n2)cc1 | Active | Active |  |
| c1ccc2c(Nc3cc(C4CC4)[nH]n3)nc(NC3CCCCC3)nc2c1 | Active | Active | < 0.01 |
| c1cncc(-c2nccc(Nc3cc(C4CC4)[nH]n3)n2)c1 | Active | Active |  |
| CN(C)[C@@H]1CCN(c2cc(Nc3cc(C(F)(F)F)ccn3)nc(-c3cccc(C#N)c3)n2)C1 | Active | Active |  |
| CN(C)[C@@H]1CCN(c2cc(Nc3cc(C4CC4)[nH]n3)nc(-c3ccccc3)n2)C1 | Active | Active |  |
| c1cc(Nc2cc(C3CC3)[nH]n2)nc(NCC2CC2)n1 | Active | Active |  |
| Cc1cc(Nc2nc(-c3ccncc3)nc3ccccc23)n[nH]1 | Active | Active |  |
| CN1CCC(CNc2cc(Nc3cc(C4CC4)[nH]n3)nc(-c3cccc(S(C)(=O)=O)c3)n2)CC1 | Active | Active |  |
| COc1ccnc(Nc2cc(N3CC[C@@H](N(C)C)C3)nc(-c3ccccc3)n2)c1 | Active | Active |  |
| c1cc(Nc2cc(C3CC3)[nH]n2)nc(NC2CCCC2)n1 | Active | Active |  |

| Compound | inhibition [1] | inhibition [2] | fraction unbound [3] |
| --- | --- | --- | --- |
| CS(=O)(=O)Nc1cccc(-c2nccc(Nc3cc(C4CC4)[nH]n3)n2)c1 | Active | Active |  |
| c1ccc(-c2nc(Nc3cc(C4CC4)[nH]n3)c3ccccc3n2)cc1 | Active | Active |  |
| CN1CCC(CNc2cc(Nc3cc(C4CC4)[nH]n3)nc(-c3ccccc3)n2)CC1 | Active | Active |  |
| c1ccc(-c2nc(Nc3cc(C4CC4)n[nH]3)c3ccccc3n2)cc1 |  |  | < 0.01 |
| Clc1ccccc1CCNc1nccc(Nc2cc(C3CC3)[nH]n2)n1 | Active | Active |  |
| CN1CCC(Nc2cc(Nc3cc(C4CC4)[nH]n3)nc(-c3ccccc3)n2)CC1 | Active | Active |  |
| Cc1cc(Nc2nc(-c3ccc(F)cc3)nc3ccccc23)n[nH]1 | Active | Active | < 0.01 |
| Fc1ccc(-c2nc(Nc3cc[nH]n3)c3ccccc3n2)cc1 | Active | Active | < 0.01 |
| CN(C)[C@@H]1CCN(c2cc(Nc3cc(Cl)ccn3)nc(-c3ccccc3)n2)C1 | Active | Active |  |
| CS(=O)(=O)c1cccc(-c2nccc(Nc3cc(C4CC4)[nH]n3)n2)c1 | Active | Active |  |
| NC(=O)c1cccc(-c2nccc(Nc3cc(C4CC4)[nH]n3)n2)c1 | Active | Active |  |
| CS(=O)(=O)NCc1ccc(-c2nccc(Nc3cc(C4CC4)[nH]n3)n2)cc1 | Active | Active |  |
| c1ccc2c(Nc3cc(C4CC4)[nH]n3)nc(NCC3CC3)nc2c1 | Active | Active |  |
| CN(C)CCNc1cc(Nc2cc(C3CC3)[nH]n2)nc(-c2ccccc2)n1 | Active | Active |  |
| Fc1cccc(CCNc2nccc(Nc3cc(C4CC4)[nH]n3)n2)c1 | Active | Active |  |
| c1ccc2c(Nc3cc(C4CC4)n[nH]3)nc(NCC3CC3)nc2c1 |  |  | < 0.01 |
| CN(C)[C@@H]1CCN(c2cc(Nc3cc(C4CC4)[nH]n3)nc(-c3cccc(C#N)c3)n2)C1 | Active | Active |  |
| CC(C)CCNc1nccc(Nc2cc(C3CC3)[nH]n2)n1 | Active | Active |  |
| Fc1ccc(-c2nccc(Nc3cc(C4CC4)[nH]n3)n2)cc1 | Active | Active |  |
| c1ccc(-c2nc(Nc3cc(C4CC4)[nH]n3)cc(OCCN3CCCC3)n2)cc1 | Active | Active |  |
